Measured values published in patent US6787567B2, “Fungicidal active ingredients combinations” (Bayer Aktiengesellschaft, priority 2000, dated 2004).

Tested on: Plasmopara viticola
Test: Plasmopara test (grapevine)/protective
Type: in vivo, Plasmopara viticola on grapevine
Details: protective, evaluation 6 days after inoculation
Protocol: Plasmopara Test (Grapevine)/Protective
Solvent: 49 parts by weight of acetone
Emulsifier: 1 part by weight of alkyl-aryl polyglycol ether
To produce a suitable preparation of active compound, 1 part by weight of active compound or active compound combination is mixed with the stated amounts of solvent and emulsifier, and the concentrate is diluted with water to the desired concentration, or a commercially available formulation of active compound or active compound combination is diluted with water to the desired concentration.
To test for protective activity, young plants are sprayed with the preparation of active compound at the stated application rate. After the spray coating has dried on, the plants are inoculated with an aqueous spore suspension of Plasmopara viticola and then remain in an incubation cabin at approximately 20° C. and 100% relative atmospheric humidity for 1 day. The plants are then placed in a greenhouse at approximately 21° C. and approximately 90% atmospheric humidity for 4 days. The plants are then moistened and then placed in an incubation cabin for 1 day.
Evaluation is carried out 6 days after the inoculation. 0% means an efficacy which corresponds to that of the control, whereas an efficacy of 100% means that no infection is observed.

| Compound | % efficacy (application rate 100 g/ha) [%] | % efficacy (application rate 10 g/ha) [%] |
| --- | --- | --- |
| [Cl-].[Cu+2].[Cu+2].[OH-].[OH-].[OH-] [Copper oxychloride (XXXXVIa), copper oxychloride] | 26 | – |
| CON=C(C(=O)NCCc1ccc(OC)c(OC)c1)c1ccc2c(c1)CCCC2 [Ib] | – | 66 |
